Reference: US12649709B2, “Naphthoquinone-based chalcone derivatives and uses thereof” (priority 2020, dated 2026)

Key:
[1] = test system: Human Liver cells (Hep-G2); assay: Cellular metabolic activity, autobioluminescent liver cells; format: cell-based; details: for concentration-dependent effect on cellular metabolism over time: 24 h
Description: Autobioluminescent Human Epithelial Kidney cells (HEK-293, 490 Biotech) and Human Liver cells (Hep-G2, 490 Biotech) and Human primary astrocytes (490 Biotech) were seeded at 10,000 kidney cells/well, or 50,000 liver cells/well, in 96-well tissue culture treated plates (Falcon) in growth media. The growth media consists of the following: DMEM (Hyclone), 10% heat-inactivated FBS (Gibco), 1% Sodium Pyruvate (HyClone), 1% antibiotic/antimyotic (Hyclone) and 100 μg G418/ml (Gibco). Cells were grown for 2 days prior to treatment with dimenadione derivative compounds. […] The treated cells were incubated at 37° C. and 5% CO2 for x hours. At each concentration, bioluminescence was measured with either a BMG Labtech clarioSTAR plate reader or an IVIS CCD camera system. Any changes in cell bioluminescence were recorded as photons/per well. The replicates were averaged, and all conditions were normalized to background light detection (medium-only control wells). The vehicle-only controls were compared to the untreated controls to make sure there was not change in metabolic activity due to the solvent. All other treatments were then compared to the vehicle control. The relative change in light output was measured between each treatment and the vehicle control at each timepoint. The amount of light being made is proportional to metabolic activity (as measured by FMNH2 availability, which provides the same information as a traditional ATP content assay (i.e., CellTiter Glo).
5 fM to 5 μM (10 μL/well) of individual compounds solubilized in DMSO were incubated with cells in 96-well plates. The reference compound was DMSO-only vehicle control, at a final concentration of 0.1% DMSO. Importantly maximally effective concentrations of the compound, in the mid-picomolar to mid-nanomolar range, increased metabolic activity by as much as 2.5-fold. This observation aligns with the core hypothesized mechanism of the compound which has been designed to integrate into the mitochondrial ETC and improve energy production in the form of ATP in mitochondria. Increased energy production is reflected in overall cellular metabolism of the cells.

[2] = test system: Autobioluminescent Human Epithelial Kidney cells (HEK-293); assay: Cellular metabolic activity, autobioluminescent kidney cells; format: cell-based; details: FIG. 7A; Hematin:RLS3 1:1,000; 0.5 pM-5 nM RLS3; 14-hour period post-exposure; kidney cell model
Description: (§1) Autobioluminescent Human Epithelial Kidney cells (HEK-293, 490 Biotech) and Human Liver cells (Hep-G2, 490 Biotech) and Human primary astrocytes (490 Biotech) were seeded at 10,000 kidney cells/well, or 50,000 liver cells/well, in 96-well tissue culture treated plates (Falcon) in growth media. The growth media consists of the following: DMEM (Hyclone), 10% heat-inactivated FBS (Gibco), 1% Sodium Pyruvate (HyClone), 1% antibiotic/antimyotic (Hyclone) and 100 μg G418/ml (Gibco). Cells were grown for 2 days prior to treatment with dimenadione derivative compounds. The media was aspirated and cells were washed with 1×PBS (Fisher, SH30256.01) and treated with serial dilutions ranging from 5 fM to 5 μM (1 mL/well) dimenadione derivative compounds. The treated cells were incubated at 37° C. and 5% CO2 for x hours. At each concentration, bioluminescence was measured with either a BMG Labtech clarioSTAR plate reader or an IVIS CCD camera system. Any changes in cell bioluminescence were recorded as photons/per well. […] The relative change in light output was measured between each treatment and the vehicle control at each timepoint. The amount of light being made is proportional to metabolic activity (as measured by FMNH2 availability, which provides the same information as a traditional ATP content assay (i.e., CellTiter Glo). […]

[3] = test system: primary astrocytes; assay: Cellular metabolic activity, autobioluminescent neuronal (astrocyte) cells; format: cell-based, murine; details: 24 hour period
Description: as §1

[4] = FIG. 8A, complexed with Hematin 1:1,000, 0.5 nM-5 μM, 24-hour period post-exposure, liver cells
[5] = complexed with hematin (FIG. 8A), liver cells
[6] = without hematin complexation (FIG. 8B), 1 pM-10 μM, liver cells

Structure (SMILES) | metabolic activity (bioluminescence) over time ([1]; FIG. 7B, Hematin:RLS3 1:1,000, 500 pM-5 μM RLS3, 14 h period post-exposure, liver cell model as printed) | metabolic activity (bioluminescence) over time [1, 4] | concentration-dependent effect on cellular metabolism over time [1, 5] | concentration-dependent effect on cellular metabolism over time [1, 6] | metabolic activity (bioluminescence) over time [2] | effect on cellular metabolism ([3]; FIG. 9A, 100 pM and 1 nM RLS5 with Hematoporphyrin complexation (1:1000)) | effect on cellular metabolism ([3]; FIG. 9B, 100 pM and 1 nM RLS5 without Hematoporphyrin complexation)
COc1cc(C)c(OC)c2ccccc12 [RLS3, 1,4-Dimethoxy-2-Methylnaphthalene] | increase in metabolic activity over time | increase in metabolic activity over time | seemed to show a concentration-dependent effect | did not | increase in metabolic activity over time | – | –
COc1c(C)c(C=O)c(OC)c2ccccc12 [RLS4, 1,4-Dimethoxy-3-Methyl-2-Naphthaldehyde] | – | increase in metabolic activity over time | seemed to show a concentration-dependent effect | did not | – | – | –
COc1c(C)c(/C=C/C(=O)/C=C(O)/C=C/c2c(C)c(OC)c3ccccc3c2OC)c(OC)c2ccccc12 [RLS5, (1E,4Z,6E)-1,7-Bis(1,4-Dimethoxy-3-methylnaphthalen-2-yl)-5-Hydroxyhepta-1,4,6-trien-3-one] | – | – | – | – | – | slight concentration dependent effect | slight concentration dependent effect
